Results as given in publication PMC4810412, “Identification of a Fragment-Based Scaffold that Inhibits the Glycosyltransferase WaaG from Escherichia coli” (Antibiotics, 2016).

Biological target: WaaG (α-1,3-glucosyltransferase I) (Escherichia coli, UniProt P25740)
Assay: […]-glucose transfer from UDP-Glc to truncated LPS, SDS-PAGE autoradiography, dose-response
Format: biochemical

WaaG (α-1,3-glucosyltransferase I), sequence (P25740 whole entry, the tested form may be a part): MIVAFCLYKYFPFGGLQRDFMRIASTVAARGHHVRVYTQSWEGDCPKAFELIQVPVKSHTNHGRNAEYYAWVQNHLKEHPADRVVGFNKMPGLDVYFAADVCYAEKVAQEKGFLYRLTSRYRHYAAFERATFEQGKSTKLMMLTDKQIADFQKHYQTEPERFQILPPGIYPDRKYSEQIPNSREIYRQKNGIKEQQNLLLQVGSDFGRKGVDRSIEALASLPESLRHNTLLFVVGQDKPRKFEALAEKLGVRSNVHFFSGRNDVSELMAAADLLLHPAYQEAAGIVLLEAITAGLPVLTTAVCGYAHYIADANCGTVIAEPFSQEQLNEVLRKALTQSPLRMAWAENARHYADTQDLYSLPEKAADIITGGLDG

Nc1nc(-c2ccc(O)cc2)cs1 [L1, 4-(2-amino-1,3-thiazol-4-yl)phenol]
IC50: 1000 µM
